{"source": "patent US7993931B1", "about": "“Oxygen-18 labeled organic acids and use in diagnosing metabolic disorders” (Quest Diagnostics Investments Incorporated, priority 2003, dated 2011)", "test": "Stability of oxygen-18 labeled organic acids in the sample preparation procedure (L/L extraction, MTBSTFA derivatization, GC/MS)", "conditions": "for stability of the labeled acid (in words): prior to L/L extraction, during an 80 minute and during a 120 minute L/L extraction", "key": {"[1]": {"conditions": "Before L/L extraction, in diluted normal human urine, pH 1, ethyl-acetate extraction, GC/MS [M-57]+"}}}
{"smiles": "CC(C)CC(O)C(=O)O", "note": "(stereo not drawn) [2-hydroxy isocaproic acid]", "values": [{"measurement": "Single labeled", "setting": "Before L/L extraction", "result": 15.6, "unit": "%"}, {"measurement": "Unlabeled", "setting": "Before L/L extraction", "result": 0.4, "unit": "%"}, {"measurement": "Double labeled", "setting": "[1]", "result": 84, "unit": "%"}, {"measurement": "Double labeled", "setting": "L/L 80 min. extraction", "result": 83, "unit": "%"}, {"measurement": "Single labeled", "setting": "L/L 80 min. extraction", "result": 16.5, "unit": "%"}, {"measurement": "Unlabeled", "setting": "L/L 80 min. extraction", "result": 0.5, "unit": "%"}, {"measurement": "Double labeled", "setting": "L/L 120 min. extraction", "result": 79, "unit": "%"}, {"measurement": "Single labeled", "setting": "L/L 120 min. extraction", "result": 20.6, "unit": "%"}, {"measurement": "Unlabeled", "setting": "L/L 120 min. extraction", "result": 0.4, "unit": "%"}, {"measurement": "stability of the labeled acid (in words)", "result": "exhibited stability"}]}
{"smiles": "CC(O)C(C)C(=O)O", "note": "(stereo not drawn) [3-hydroxy-2-methyl butyric acid]", "values": [{"measurement": "Single labeled", "setting": "Before L/L extraction", "result": 14.9, "unit": "%"}, {"measurement": "Unlabeled", "setting": "Before L/L extraction", "result": 0.1, "unit": "%"}, {"measurement": "Double labeled", "setting": "[1]", "result": 85, "unit": "%"}, {"measurement": "Double labeled", "setting": "L/L 80 min. extraction", "result": 85, "unit": "%"}, {"measurement": "Single labeled", "setting": "L/L 80 min. extraction", "result": 14.9, "unit": "%"}, {"measurement": "Unlabeled", "setting": "L/L 80 min. extraction", "result": 0.1, "unit": "%"}, {"measurement": "Double labeled", "setting": "L/L 120 min. extraction", "result": 85, "unit": "%"}, {"measurement": "Single labeled", "setting": "L/L 120 min. extraction", "result": 14.7, "unit": "%"}, {"measurement": "Unlabeled", "setting": "L/L 120 min. extraction", "result": 0.3, "unit": "%"}, {"measurement": "stability of the labeled acid (in words)", "result": "exhibited stability"}]}
{"smiles": "O=C(O)Cc1ccc(O)cc1", "note": "[4-hydroxy phenyl acetic acid]", "values": [{"measurement": "Single labeled", "setting": "Before L/L extraction", "result": 15.5, "unit": "%"}, {"measurement": "Unlabeled", "setting": "Before L/L extraction", "result": 0.8, "unit": "%"}, {"measurement": "Double labeled", "setting": "[1]", "result": 83.7, "unit": "%"}, {"measurement": "Double labeled", "setting": "L/L 80 min. extraction", "result": 81, "unit": "%"}, {"measurement": "Single labeled", "setting": "L/L 80 min. extraction", "result": 15.8, "unit": "%"}, {"measurement": "Unlabeled", "setting": "L/L 80 min. extraction", "result": 3.2, "unit": "%"}, {"measurement": "Double labeled", "setting": "L/L 120 min. extraction", "result": 78, "unit": "%"}, {"measurement": "Single labeled", "setting": "L/L 120 min. extraction", "result": 19.7, "unit": "%"}, {"measurement": "Unlabeled", "setting": "L/L 120 min. extraction", "result": 2.3, "unit": "%"}, {"measurement": "stability of the labeled acid (in words)", "result": "exhibited stability"}]}
{"smiles": "CCCC(=O)NCC(=O)O", "note": "[Oxygen-18-Containing Butyryl Glycine, Butyryl glycine]", "values": [{"measurement": "Single labeled", "setting": "Before L/L extraction", "result": 14.5, "unit": "%"}, {"measurement": "Unlabeled", "setting": "Before L/L extraction", "result": 0.5, "unit": "%"}, {"measurement": "Double labeled", "setting": "[1]", "result": 85, "unit": "%"}, {"measurement": "Double labeled", "setting": "L/L 80 min. extraction", "result": 85, "unit": "%"}, {"measurement": "Single labeled", "setting": "L/L 80 min. extraction", "result": 14.8, "unit": "%"}, {"measurement": "Unlabeled", "setting": "L/L 80 min. extraction", "result": 0.2, "unit": "%"}, {"measurement": "Double labeled", "setting": "L/L 120 min. extraction", "result": 83, "unit": "%"}, {"measurement": "Single labeled", "setting": "L/L 120 min. extraction", "result": 16.2, "unit": "%"}, {"measurement": "Unlabeled", "setting": "L/L 120 min. extraction", "result": 0.8, "unit": "%"}, {"measurement": "stability of the labeled acid (in words)", "result": "exhibited stability"}]}
{"smiles": "CC=CC(=O)NCC(=O)O", "note": "[Oxygen-18-Containing Crotonyl Glycine, Crotonyl glycine]", "values": [{"measurement": "Single labeled", "setting": "Before L/L extraction", "result": 15.5, "unit": "%"}, {"measurement": "Unlabeled", "setting": "Before L/L extraction", "result": 0.1, "unit": "%"}, {"measurement": "Double labeled", "setting": "[1]", "result": 84, "unit": "%"}, {"measurement": "Double labeled", "setting": "L/L 80 min. extraction", "result": 85, "unit": "%"}, {"measurement": "Single labeled", "setting": "L/L 80 min. extraction", "result": 14.8, "unit": "%"}, {"measurement": "Unlabeled", "setting": "L/L 80 min. extraction", "result": 0.2, "unit": "%"}, {"measurement": "Double labeled", "setting": "L/L 120 min. extraction", "result": 81, "unit": "%"}, {"measurement": "Single labeled", "setting": "L/L 120 min. extraction", "result": 17.4, "unit": "%"}, {"measurement": "Unlabeled", "setting": "L/L 120 min. extraction", "result": 1.6, "unit": "%"}, {"measurement": "stability of the labeled acid (in words)", "result": "exhibited stability"}]}
{"smiles": "O=C(O)CCCC(=O)O", "note": "[Oxygen-18-Containing Glutaric Acid, Glutaric acid]", "values": [{"measurement": "Oxygen 18 × 1", "setting": "Before L/L extraction", "result": 0.4, "unit": "%"}, {"measurement": "Oxygen 18 × 2", "setting": "Before L/L extraction", "result": 3.5, "unit": "%"}, {"measurement": "Oxygen 18 × 3", "setting": "Before L/L extraction", "result": 27, "unit": "%"}, {"measurement": "Oxygen 18 × 4", "setting": "Before L/L extraction", "result": 69, "unit": "%"}, {"measurement": "Unlabeled", "setting": "Before L/L extraction", "result": 0.1, "unit": "%"}, {"measurement": "Oxygen 18 × 1", "setting": "L/L 80 min. extraction", "result": 0.8, "unit": "%"}, {"measurement": "Oxygen 18 × 2", "setting": "L/L 80 min. extraction", "result": 3, "unit": "%"}, {"measurement": "Oxygen 18 × 3", "setting": "L/L 80 min. extraction", "result": 28, "unit": "%"}, {"measurement": "Oxygen 18 × 4", "setting": "L/L 80 min. extraction", "result": 68, "unit": "%"}, {"measurement": "Unlabeled", "setting": "L/L 80 min. extraction", "result": 0.2, "unit": "%"}, {"measurement": "Oxygen 18 × 1", "setting": "L/L 120 min. extraction", "result": 0.8, "unit": "%"}, {"measurement": "Oxygen 18 × 2", "setting": "L/L 120 min. extraction", "result": 4, "unit": "%"}, {"measurement": "Oxygen 18 × 3", "setting": "L/L 120 min. extraction", "result": 30, "unit": "%"}, {"measurement": "Oxygen 18 × 4", "setting": "L/L 120 min. extraction", "result": 65, "unit": "%"}, {"measurement": "Unlabeled", "setting": "L/L 120 min. extraction", "result": 0.2, "unit": "%"}, {"measurement": "stability of the labeled acid (in words)", "result": "exhibited stability"}]}
{"smiles": "O=C(O)C(O)CO", "note": "(stereo not drawn) [Oxygen-18-Containing Glyceric Acid, Glyceric acid]", "values": [{"measurement": "Single labeled", "setting": "Before L/L extraction", "result": 13, "unit": "%"}, {"measurement": "Unlabeled", "setting": "Before L/L extraction", "result": 0, "unit": "%"}, {"measurement": "Double labeled", "setting": "[1]", "result": 87, "unit": "%"}, {"measurement": "Double labeled", "setting": "L/L 80 min. extraction", "result": 84, "unit": "%"}, {"measurement": "Single labeled", "setting": "L/L 80 min. extraction", "result": 15.5, "unit": "%"}, {"measurement": "Unlabeled", "setting": "L/L 80 min. extraction", "result": 0.5, "unit": "%"}, {"measurement": "Double labeled", "setting": "L/L 120 min. extraction", "result": 81, "unit": "%"}, {"measurement": "Single labeled", "setting": "L/L 120 min. extraction", "result": 17.6, "unit": "%"}, {"measurement": "Unlabeled", "setting": "L/L 120 min. extraction", "result": 2.4, "unit": "%"}, {"measurement": "stability of the labeled acid (in words)", "result": "exhibited stability"}]}
{"smiles": "CC(=O)CC(=O)CCC(=O)O", "note": "[Oxygen-18-Containing Succinyacetone, Succinyacetone]", "values": [{"measurement": "Oxygen 18 × 1", "setting": "Before L/L extraction", "result": 0.2, "unit": "%"}, {"measurement": "Oxygen 18 × 2", "setting": "Before L/L extraction", "result": 2.8, "unit": "%"}, {"measurement": "Oxygen 18 × 3", "setting": "Before L/L extraction", "result": 25, "unit": "%"}, {"measurement": "Oxygen 18 × 4", "setting": "Before L/L extraction", "result": 72, "unit": "%"}, {"measurement": "Unlabeled", "setting": "Before L/L extraction", "result": 0, "unit": "%"}, {"measurement": "Oxygen 18 × 1", "setting": "L/L 80 min. extraction", "result": 0.2, "unit": "%"}, {"measurement": "Oxygen 18 × 2", "setting": "L/L 80 min. extraction", "result": 2.8, "unit": "%"}, {"measurement": "Oxygen 18 × 3", "setting": "L/L 80 min. extraction", "result": 27, "unit": "%"}, {"measurement": "Oxygen 18 × 4", "setting": "L/L 80 min. extraction", "result": 70, "unit": "%"}, {"measurement": "Unlabeled", "setting": "L/L 80 min. extraction", "result": 0, "unit": "%"}, {"measurement": "Oxygen 18 × 1", "setting": "L/L 120 min. extraction", "result": 0.8, "unit": "%"}, {"measurement": "Oxygen 18 × 2", "setting": "L/L 120 min. extraction", "result": 3, "unit": "%"}, {"measurement": "Oxygen 18 × 3", "setting": "L/L 120 min. extraction", "result": 29, "unit": "%"}, {"measurement": "Oxygen 18 × 4", "setting": "L/L 120 min. extraction", "result": 67, "unit": "%"}, {"measurement": "Unlabeled", "setting": "L/L 120 min. extraction", "result": 0.2, "unit": "%"}, {"measurement": "stability of the labeled acid (in words)", "result": "exhibited stability"}]}
{"smiles": "CCC(O)C(=O)O", "note": "(stereo not drawn) [oxygen-18-containing 2-OH Butyric Acid, 2-hydroxy-butyric acid]", "values": [{"measurement": "Single labeled", "setting": "Before L/L extraction", "result": 15, "unit": "%"}, {"measurement": "Unlabeled", "setting": "Before L/L extraction", "result": 1, "unit": "%"}, {"measurement": "Double labeled", "setting": "[1]", "result": 84, "unit": "%"}, {"measurement": "Double labeled", "setting": "L/L 80 min. extraction", "result": 83, "unit": "%"}, {"measurement": "Single labeled", "setting": "L/L 80 min. extraction", "result": 17.4, "unit": "%"}, {"measurement": "Unlabeled", "setting": "L/L 80 min. extraction", "result": 0.11, "unit": "%"}, {"measurement": "Double labeled", "setting": "L/L 120 min. extraction", "result": 80, "unit": "%"}, {"measurement": "Single labeled", "setting": "L/L 120 min. extraction", "result": 19.7, "unit": "%"}, {"measurement": "Unlabeled", "setting": "L/L 120 min. extraction", "result": 0.3, "unit": "%"}, {"measurement": "stability of the labeled acid (in words)", "result": "exhibited stability"}]}
